How the values were obtained:
FLT-3 [1] = target: T1, FLT-3 (Homo sapiens, UniProt P36888); assay: FLT-3 ligand stimulated FLT-3 phosphorylation in OC1-AML5 cells; type: cell-based; settings: FLT-3 ligand stimulated OC1-AML5 cells
T1 construct: The OC1-AML5 cell line which express FLT-3-wild type was obtained (Pharmacia); host or cells: OC1-AML5
T1 sequence (P36888 27-993): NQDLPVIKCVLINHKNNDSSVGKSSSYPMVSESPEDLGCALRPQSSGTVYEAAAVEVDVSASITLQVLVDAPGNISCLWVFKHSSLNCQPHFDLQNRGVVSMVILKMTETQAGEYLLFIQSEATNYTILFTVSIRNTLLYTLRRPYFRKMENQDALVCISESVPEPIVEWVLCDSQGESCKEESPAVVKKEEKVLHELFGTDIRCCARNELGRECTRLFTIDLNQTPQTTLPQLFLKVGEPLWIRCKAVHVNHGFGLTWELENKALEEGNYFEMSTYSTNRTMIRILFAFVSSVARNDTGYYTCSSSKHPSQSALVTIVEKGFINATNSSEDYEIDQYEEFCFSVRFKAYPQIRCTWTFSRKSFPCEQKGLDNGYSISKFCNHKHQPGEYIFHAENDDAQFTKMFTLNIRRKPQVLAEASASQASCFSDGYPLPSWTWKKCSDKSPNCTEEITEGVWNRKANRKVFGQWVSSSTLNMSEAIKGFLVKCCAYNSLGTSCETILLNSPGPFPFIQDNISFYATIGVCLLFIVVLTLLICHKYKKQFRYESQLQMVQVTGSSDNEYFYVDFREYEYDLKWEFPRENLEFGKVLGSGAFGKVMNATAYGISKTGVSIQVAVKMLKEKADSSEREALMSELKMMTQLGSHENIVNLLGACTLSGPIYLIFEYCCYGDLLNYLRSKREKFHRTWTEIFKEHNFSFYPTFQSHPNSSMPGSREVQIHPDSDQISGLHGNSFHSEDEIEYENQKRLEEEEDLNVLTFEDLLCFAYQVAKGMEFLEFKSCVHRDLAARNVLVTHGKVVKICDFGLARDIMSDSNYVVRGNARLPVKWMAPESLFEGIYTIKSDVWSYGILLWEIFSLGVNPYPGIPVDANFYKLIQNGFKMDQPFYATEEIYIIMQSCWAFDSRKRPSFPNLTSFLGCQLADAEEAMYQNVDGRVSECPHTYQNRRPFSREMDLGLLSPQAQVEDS
Excerpt: Cells were stimulated with FLT-3 ligand and lysed. FLT-3 was immunoprecipitated from lysates with a commercially available antibody. Proteins were separated by SDS-polyacrylamide gel electrophoresis, transferred to membranes and analyzed by Western blotting for phosphotyrosine and subsequently for total FLT-3 protein as control.

Stat5 = Stat5 activation by FLT-3 ligand in OC1-AML5 cells (IP/Western, Western, gel shift); type: cell-based; settings: FLT-3 ligand stimulated
Excerpt: (§1) Activation of downstream pathways by FLT-3 ligand was also investigated, specifically for Stat5 and erk. Stat5 and Erk are downstream mediators of RTK signaling, and may provide readouts for FLT-3 signaling. Stat 5 is a transcription factor which regulates many genes involves in cell survival and proliferation. Erk½ are kinases on the Raf signaling pathway.

erk½ = erk½ phosphorylation in OC1-AML5 cells; type: cell-based
Excerpt: as §1

RS411 (wild type FLT-3) = assay: Cell proliferation, RS411; type: cell-based
MV411 (ITD mutant FLT-3) = assay: Cell proliferation, MV411; type: cell-based
MV411 tumors = assay: Subcutaneous MV411 tumor model, tumor growth; type: in vivo, athymic mice; settings: within 4 days of treatment
Description: Tumor cells, MV411 in the example shown were implanted subcutaneously in the hindflank of athymic mice. […] For measurement of efficacy, tumor growth was measured at various subsequent time points using vernier calipers. For analysis of phosphorylation, tumors were resected following dosing (4 hours here), pulverized in liquid nitrogen and homogenized in lysis buffer. FLT-3 and Stat5 phosphorylation were measured by immunoprecipitation and Western blot analysis.
Athymic mice were injected subcutaneously with MV411 and RS411 cells to cause tumor formation.

MV4; 11 = assay: VEGF production, MV4;11 cells; type: cell-based; settings: for VEGF %: 0 uM = 100
OC1-AML5 = assay: VEGF production, OC1-AML5 cells; type: cell-based; settings: for VEGF %: 0 uM = 100
VEGF = assay: Plasma VEGF by ELISA; type: in vivo; settings: plasma of NOD-SCID mice
Description: At experimental endpoints, mice were anesthetized, followed by terminal blood collection via intracardiac puncture. Bone marrow cell suspensions were prepared by flushing mouse femurs with cold, sterile PBS. For all studies, a paired Student's t test was used to assess differences between treated and control groups (P<0.05 was considered significant).
Plasma from the NOD-SCID mice described above was analyzed by ELISA for VEGF protein levels using a commercially available kit.

FLT-3 [2] = assay: Phase I single dose study, FLT-3 phosphorylation in whole blood; type: in vivo, human; settings: AML patients, reached in 3 pts at each dose level >200 mg, WT and mutant FLT-3 patients
Description: Immunoprecipitation and Western Blot (IP/W) analysis: Cells were lysed in lysis buffer (20 mM Tris, pH 7.5; 137 mM NaCl; 10% glycerol; 1% NP-40; 0.1% SDS; 2 mM EDTA) containing protease and phosphatase inhibitors (50 mM sodium fluoride, 1 mM sodium orthovanadate, 2 mM Pefabloc, […], […], […], 4 mM leupeptin, and 4 mM pepstatin A). Equivalent amounts of protein were separated by SDS-PAGE, then transferred to nitrocellulose membranes. For analysis of FLT3 phosphorylation, equivalent amounts of protein from each sample were immunoprecipitated overnight at 4*C. with an agarose-conjugated anti-FLT3 antibody (Santa Cruz Biotechnology, Santa Cruz, Calif.). Immune complexes were washed (150 mM NaCl, 1.5 mM MgCl2, 50 mM HEPES, pH 7.5, 10% glycerol, 0.1% Triton X-100, and 1 mM EGTA) and following SDS-PAGE, proteins were transferred to nitrocellulose membranes. Membranes were probed with an anti-phosphotyrosine antibody (Upstate, Lake Placid, N.Y. or Transduction Laboratories, Lexington, Ky.) and then stripped with Restore Western Blot Stripping Buffer (Pierce, Rockford, Ill.). Membranes were reprobed with an anti-FLT3 antibody (Santa Cruz Biotechnology). Stat5 antibodies for immunprecipitation and Western blot analysis were from Upstate Biotechnology and Transduction labs respectively.

CCN(CC)CCNC(=O)c1c(C)[nH]c(/C=C2\C(=O)Nc3ccc(F)cc32)c1C [Compound 1, 5-(5-Fluoro-2-oxo-1,2-dihydro-indol-3-ylidenemethyl)-2,4-dimethyl-1H-pyrrole-3-carboxylic acid(2-diethylamino-ethyl)-amide]
FLT-3 phosphorylation (FLT-3 [1]): decreased
Stat5 activity (Stat5): inhibited
IL-3 dependent erk activation (erk½; IL-3 dependent): not inhibited
Phosphorylation of erk½ (erk½; activated by FLT-3 ligand): inhibited
expansion of RS411 (RS411 (wild type FLT-3)): inhibited expansion
expansion of MV411 (MV411 (ITD mutant FLT-3)): inhibited expansion
tumor size (MV411 tumors): dramatically reduced tumor size to almost undetectable
VEGF mean sd (MV4; 11; CMPD 1 0.00 uM): 287.8
VEGF % (MV4; 11; CMPD 1 0.00 uM): 83.0%
VEGF mean sd (MV4; 11; CMPD 1 0.01 uM): 65.4
VEGF % (MV4; 11; CMPD 1 0.01 uM): 18.9%
VEGF mean sd (MV4; 11; CMPD 1 0.1 uM): 31.2
VEGF % (MV4; 11; CMPD 1 0.1 uM): 9.0%
VEGF mean sd (MV4; 11; CMPD 1 1 uM): 30.5
VEGF % (MV4; 11; CMPD 1 1 uM): 8.8%
VEGF mean sd (MV4; 11; CMPD 1 10 uM): 23.3
VEGF % (MV4; 11; CMPD 1 10 uM): 6.7%
VEGF mean sd (OC1-AML5; CMPD 1 0.00 uM): 92.5
VEGF % (OC1-AML5; CMPD 1 0.00 uM): 91.8%
VEGF mean sd (OC1-AML5; CMPD 1 0.01 uM): 35.6
VEGF % (OC1-AML5; CMPD 1 0.01 uM): 35.3%
VEGF mean sd (OC1-AML5; CMPD 1 0.1 uM): 33.6
VEGF % (OC1-AML5; CMPD 1 0.1 uM): 33.3%
VEGF mean sd (OC1-AML5; CMPD 1 1 uM): 28.3
VEGF % (OC1-AML5; CMPD 1 1 uM): 28.0%
VEGF % (OC1-AML5; CMPD 1 10 uM): 15.5%
VEGF in plasma (mean) (VEGF): 49 pg/mL
inhibition of FLT-3 phosphorylation (FLT-3 [2]): > 50%

Reference: US20030130280A1, “Treatment of acute myeloid leukemia with indolinone compounds” (SUGEN, Inc., priority 2001, published 2003)
